In ChEMBL document CHEMBL1131728 (Bioorg Med Chem Lett, 1999):
pKi: −log10 of the molar value.

The molecules below were run against T1, Aminopeptidase N (Sus scrofa, UniProt P15145) (assay: Inhibition of pig kidney Aminopeptidase N).
T1 sequence (P15145 whole entry): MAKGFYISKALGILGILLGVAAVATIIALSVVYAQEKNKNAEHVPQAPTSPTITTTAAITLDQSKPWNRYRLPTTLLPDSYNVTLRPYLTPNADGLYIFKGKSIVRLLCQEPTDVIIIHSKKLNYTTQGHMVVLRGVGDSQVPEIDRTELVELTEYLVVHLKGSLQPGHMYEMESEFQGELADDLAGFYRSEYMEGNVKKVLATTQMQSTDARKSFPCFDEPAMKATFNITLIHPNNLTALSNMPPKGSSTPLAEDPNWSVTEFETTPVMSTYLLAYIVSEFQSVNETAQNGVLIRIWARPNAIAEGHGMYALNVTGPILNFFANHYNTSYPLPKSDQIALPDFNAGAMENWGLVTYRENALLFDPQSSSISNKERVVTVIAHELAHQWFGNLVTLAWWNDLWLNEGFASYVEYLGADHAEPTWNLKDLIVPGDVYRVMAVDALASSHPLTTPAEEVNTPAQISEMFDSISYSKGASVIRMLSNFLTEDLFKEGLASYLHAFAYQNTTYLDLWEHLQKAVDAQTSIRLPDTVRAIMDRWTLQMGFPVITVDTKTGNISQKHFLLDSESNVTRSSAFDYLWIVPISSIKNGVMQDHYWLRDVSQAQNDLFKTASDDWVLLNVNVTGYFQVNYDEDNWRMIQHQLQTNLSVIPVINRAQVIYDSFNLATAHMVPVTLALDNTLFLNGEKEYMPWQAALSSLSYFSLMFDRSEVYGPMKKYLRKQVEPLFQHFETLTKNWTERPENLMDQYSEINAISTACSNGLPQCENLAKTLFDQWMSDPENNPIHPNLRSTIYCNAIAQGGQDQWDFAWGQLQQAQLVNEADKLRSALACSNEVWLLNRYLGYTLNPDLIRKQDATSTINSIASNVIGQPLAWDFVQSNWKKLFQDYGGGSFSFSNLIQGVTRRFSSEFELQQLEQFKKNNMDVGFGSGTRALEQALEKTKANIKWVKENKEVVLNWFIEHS
With `CSCCC(N)[PH](=O)O` (stereo unspecified) the pKi was 6.40.
Molecule `NC(Cc1ccccc1)[PH](=O)O` (stereo unspecified) has a pKi of 6.02.
`N[C@H](CS)CCc1ccccc1` was tested, and the pKi was 7.57.
`CC(C)C[C@H](N)CS` showed a pKi of 7.66.
Molecule `NC(c1ccccc1)[PH](=O)O` (stereo unspecified) has a pKi of 5.32.
Molecule `CC(C)CC(N)P(=O)(O)CC(Cc1ccccc1)C(=O)O` (stereo unspecified) has a pKi of 6.43.
With `CC(C)CC(N)[PH](=O)O` (stereo unspecified) the pKi was 5.92.
In the case of `N[C@H](CS)c1ccccc1`, the pKi was 7.60.
In the case of `C[C@H](N)CS`, the pKi was 7.55.
Work on `CC(N)[PH](=O)O` (stereo unspecified) yielded a pKi of 5.08.
Work on `NC(Cc1ccccc1)P(=O)(O)CC(Cc1ccccc1)C(=O)O` (stereo unspecified) yielded a pKi of 6.72.
